Test results from patent publication US11191757B2, “Combination of pimavanserin and cytochrome P450 modulators” (ACADIA Pharmaceuticals Inc., priority 2016, dated 2021).
“Also recorded” adds a separate entry of the source.

Assays:
[1] = Pharmacokinetics of single-dose pimavanserin alone and in the presence of multiple-dose ketoconazole (strong CYP3A inhibitor) in healthy subjects; conditions: for exposure to metabolite, mean AUC ratio AUC(metabolite)/AUC(parent): after a single dose of pimavanserin; for metabolite plasma concentrations with ketoconazole co-administration: metabolite in plasma after pimavanserin tartrate 40 mg with ketoconazole 400 mg daily; for metabolite plasma levels after pimavanserin: metabolite in plasma after single dose pimavanserin tartrate 40 mg, 19 subjects
Description: (§2) 20 subjects (14 males and 6 females) were enrolled in this study. These subjects were healthy male or female subjects between the ages of 18 and 55 years, and with a body mass index (BMI) between 18 and 30 kg/m^2. Among the 20 subjects, 10 subjects (50%) were black, 9 subjects (45%) were white and 1 subject (5%) was American Indian/Alaska native.
(§3) On Day 1, subjects received a single oral dose of pimavanserin tartrate 40 mg (2×20 mg tablets) under fasting conditions. On Day 15, subjects began taking ketoconazole 400 mg (2×200 mg tablets) orally once daily for 14 days. A single oral dose of pimavanserin tartrate 40 mg was administered under fasting conditions 60 minutes after the fifth ketoconazole dose (on Day 19). Both single doses of pimavanserin tartrate were administered on an empty stomach, following an overnight fast of approximately 10 hours prior to dosing. Subjects continued to fast for 4 hours after administration of pimavanserin tartrate.
(§4) Samples for pimavanserin pharmacokinetic (PK) analysis were collected prior to each pimavanserin dose and at scheduled time points up to 14 days post-dose. More specifically, blood samples for the determination of plasma pimavanserin and four of its metabolites were collected at the following time points in relation to pimavanserin dosing on Day 1 and Day 19: pre-dose (within 30 minutes of dosing), 1, 2, 4, 6, 9, 12, 16, 24, 36, 48, 72, 96, 144, 192, 264, and 336 hours post-dose. The pharmacokinetics of pimavanserin and four metabolites, M1 (N-desmethyl-pimavanserin), M2 (O-desalkyl-pimavanserin), M3 ([ω-1]-hydroxy-pimavanserin), and M4 (ω-hydroxy-pimavanserin), by treatment consisting of pimavanserin alone and pimavanserin with ketoconazole, were assessed using noncompartmental analysis.
(§5) The following parameters were determined for pimavanserin, M1, M2 and M3 (the analytes for which there was a sufficient number of quantifiable post-dose concentrations): the area under the concentration-time curve from 0 to the time of the last measurable concentration (AUC0-t); the area from 0 to infinity (AUC0-inf); the percent of the extrapolated portion of the AUC0-inf (% AUCext); the maximum observed plasma concentration (Cmax); time of maximum plasma concentration (Tmax); apparent first-order terminal elimination rate constant (kel), and apparent first-order terminal elimination half-life (t1/2). Additional PK parameters computed for pimavanserin were oral clearance (CL/F), and apparent volume of distribution (Vz/F). Where feasible, as in the case of pimavanserin, M1, M2 and M3, parent ratios, which were computed as AUC(metabolite)/AUC(parent) ratios based on both AUC0-t and AUC0-inf were also determined.
(§6) A two-sided paired t-test was performed on the natural log-transformed pimavanserin AUC0-t, AUC0-inf, and Cmax at the alpha level of 0.05. The geometric ratio of treatment means (pimavanserin with ketoconazole/pimavanserin alone) and 90% geometric confidence intervals for the ratio of means were calculated for AUC0-t, AUC0-inf, and Cmax.

[2] = Elimination half-life of circulating metabolite M1 in humans in vivo; set-up: species or system human
[3] = clinical; conditions: both, human, in vivo, po, 40 mg
Description: as §2, §3, §4, §5, §6

[4] = both, human, in vivo
Description: as §2, §3, §4, §5, §6

[5] = target: T1, CYP3A4 (Homo sapiens, UniProt P08684); experiment: Effect of pimavanserin on the pharmacokinetics of midazolam, in vivo probe drug for CYP3A4; conditions: 34 mg pimavanserin for up to 38 days, humans
T1 construct: from tissue; host or cells: human subjects in vivo (endogenous hepatic/intestinal enzyme)
T1 sequence (P08684 whole entry): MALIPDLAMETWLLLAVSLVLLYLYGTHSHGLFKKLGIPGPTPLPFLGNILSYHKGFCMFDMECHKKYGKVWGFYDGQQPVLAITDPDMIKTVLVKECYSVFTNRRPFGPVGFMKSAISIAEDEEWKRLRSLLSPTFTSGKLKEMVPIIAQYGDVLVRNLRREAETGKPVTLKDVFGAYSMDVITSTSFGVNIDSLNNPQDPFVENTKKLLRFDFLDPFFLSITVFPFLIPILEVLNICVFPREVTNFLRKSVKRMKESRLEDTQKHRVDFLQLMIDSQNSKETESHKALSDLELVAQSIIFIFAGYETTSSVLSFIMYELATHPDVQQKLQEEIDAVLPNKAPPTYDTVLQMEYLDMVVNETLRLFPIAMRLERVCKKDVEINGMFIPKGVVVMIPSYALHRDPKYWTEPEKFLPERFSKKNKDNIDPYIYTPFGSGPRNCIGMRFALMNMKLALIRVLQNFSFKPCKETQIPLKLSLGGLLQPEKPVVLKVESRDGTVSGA
Description: In this study, the pharmacokinetics of midazolam, a sensitive in vivo probe drug for CYP3A4 and an accepted probe drug for CYP3A4, were evaluated in the presence of pimavanserin in humans. […] No dose adjustment is therefore required for other CYP3A4 substrates when coadministered with pimavanserin.

[6] = target: cytochrome P450 (CYP) 3A4 (Homo sapiens, UniProt P08684); experiment: In vitro studies of the enzymes forming the primary metabolites of pimavanserin; format: in vitro ADME
Sequence of cytochrome P450 (CYP) 3A4 (P08684 whole entry): as above
Description: (§1) A major metabolite formed in vitro by human liver microsomes, M1 (N-desmethyl-pimavanserin), was identified as a significant circulating metabolite in humans in vivo.
An in vitro study was performed to analyze the role of a CYP3A4 inhibitor in pimavanserin metabolism.

[7] = Safety and tolerability of single-dose pimavanserin alone and in the presence of ketoconazole in healthy subjects; format: in vivo, human; conditions: for treatment-related TEAEs considered related to the substance, number (% of the 16 treatment-related TEAEs): 20 healthy subjects, pimavanserin tartrate 40 mg single doses, ketoconazole 400 mg daily for 14 days; for safety and tolerability: healthy adult subjects
Description: The subject who was discontinued was not replaced.
Safety data (including adverse events (AEs)), laboratory tests, vital sign measurements, electrocardiograms (ECGs), and physical examination (PE) were reviewed throughout the study for the purpose of safety monitoring. Clinical laboratory assessments were obtained on Day −1, Day 18, and the end of study visit. Vital signs were performed at each study visit, except on Day −1. A 12-lead ECG was performed on Day −1, Day 1, Day 19 and the end of study visit. Other safety measures included physical examination on Days −1, 3, 23, and the end of study visit and any other measures deemed necessary.
All available safety data from subjects receiving at least one dose of study medication were included in the safety analyses. The frequency of AEs was tabulated. Pre-treatment, within study, and end of study, and change from pre-treatment laboratory, vital signs, and ECG parameters were summarized. Shift tables were prepared for laboratory parameters.

[8] = target: T2, CYP2J2 (Homo sapiens, UniProt P51589); experiment: In vitro studies of the enzymes forming the primary metabolites of pimavanserin; format: in vitro ADME
T2 sequence (P51589 1-502): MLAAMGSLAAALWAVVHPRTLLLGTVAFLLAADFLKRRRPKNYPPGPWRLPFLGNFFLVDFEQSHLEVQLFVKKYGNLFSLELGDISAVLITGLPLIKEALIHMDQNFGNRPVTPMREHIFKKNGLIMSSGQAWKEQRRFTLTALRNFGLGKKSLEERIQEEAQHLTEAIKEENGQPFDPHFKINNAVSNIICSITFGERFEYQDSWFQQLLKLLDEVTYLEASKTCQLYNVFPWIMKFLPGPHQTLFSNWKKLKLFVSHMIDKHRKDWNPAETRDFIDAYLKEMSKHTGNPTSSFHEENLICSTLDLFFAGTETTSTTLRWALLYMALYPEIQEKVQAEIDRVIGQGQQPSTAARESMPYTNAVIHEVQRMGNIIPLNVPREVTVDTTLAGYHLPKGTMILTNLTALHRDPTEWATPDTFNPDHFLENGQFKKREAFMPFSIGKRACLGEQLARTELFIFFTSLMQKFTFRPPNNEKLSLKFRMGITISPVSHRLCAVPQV
From the text: as §1

Structure (SMILES): CC(C)COc1ccc(CNC(=O)N(Cc2ccc(F)cc2)C2CCNCC2)cc1 [M1, N-desmethyl-pimavanserin]
- exposure to metabolite, mean AUC ratio AUC(metabolite)/AUC(parent) [1]: 1.47
- net increase in mean AUC0-t of metabolite with ketoconazole co-administration relative to pimavanserin alone ([1]; metabolite in plasma after pimavanserin tartrate 40 mg, ketoconazole 400 mg daily): 26%
- elimination half-life [2]: about 65 hours

Structure (SMILES): CN1CCC(N(Cc2ccc(F)cc2)C(=O)NCc2ccc(O)cc2)CC1 [M2, O-desalkyl-pimavanserin]
- exposure to metabolite, mean AUC ratio AUC(metabolite)/AUC(parent) [1]: 0.0365
- metabolite plasma concentrations with ketoconazole co-administration [1]: decreased plasma concentrations; also recorded: reduced

Structure (SMILES): CN1CCC(N(Cc2ccc(F)cc2)C(=O)NCc2ccc(OCC(C)(C)O)cc2)CC1 [M3, [ω-1]-hydroxy-pimavanserin]
- metabolite plasma concentrations with ketoconazole co-administration [1]: not detectable in any subjects; also recorded: reduced
- metabolite plasma levels after pimavanserin [1]: Only 5 of the 19 subjects had a few measurable plasma levels; also recorded: Low levels

Structure (SMILES): CC(CO)COc1ccc(CNC(=O)N(Cc2ccc(F)cc2)C2CCN(C)CC2)cc1 (stereo not shown) [M4, ω-hydroxy-pimavanserin]
- metabolite plasma levels after pimavanserin [1]: undetectable; also recorded: no detectable concentrations

Structure (SMILES): CC(C)COc1ccc(CNC(=O)N(Cc2ccc(F)cc2)C2CCN(C)CC2)cc1 [Pimavanserin, N-(1-methylpiperidin-4-yl)-N-(4-fluorophenylmethyl)-N′-(4-(2-methylpropyloxy)phenylmethyl)carbamide]
- AUC(0-inf) [3]: 1260 ± 464 ng·h/mL
- AUC(0-t) [3]: 1220 ± 433 ng·h/mL
- Cmax [3]: 17.1 ± 3.8 ng/mL
- ratio of the geometric means, pimavanserin AUC0-inf [4]: approximately 3
- ratio of the geometric means, pimavanserin AUC0-t [4]: approximately 3
- effect on midazolam exposure (induction or inhibition of CYP3A4) [5]: no immediate or delayed effect
- role of enzyme in formation of the primary metabolites [6]: formed predominantly by the cytochrome P450 (CYP) 3A4 enzymes
- treatment-related TEAEs considered related to the substance, number (% of the 16 treatment-related TEAEs) [7]: 8 (50%)
- changes in mean clinical laboratory, vital signs, 12-lead ECG or physical examination findings ([7]; following pimavanserin alone or pimavanserin with ketoconazole): No trends or clinically relevant changes
- safety and tolerability ([7]; pimavanserin administered alone): safe and generally well tolerated
- safety and tolerability ([7]; pimavanserin administered with ketoconazole): safe and generally well tolerated
- deaths or serious adverse events during the study ([7]; pimavanserin alone and with ketoconazole, 20 subjects): No deaths or serious adverse events
- role of enzyme in formation of the primary metabolites [8]: minor role

Structure (SMILES): CC(=O)N1CCN(c2ccc(OCC3COC(Cn4ccnc4)(c4ccc(Cl)cc4Cl)O3)cc2)CC1 (stereo not shown) [ketoconazole, reference compound]
- treatment-related TEAEs considered related to the substance, number (% of the 16 treatment-related TEAEs) [7]: 12 (75%)
